Data published in US20260151457A1, “Peptides and Fragments for Treating Diabetes and Associated Metabolic Diseases” (Betavive Ltd., priority 2024, published 2026).
Where no end group is shown, it is not given here.

Tests used:
[1] = test system: mice; test: Blood glucose concentration kinetics of IGF-2 vs. insulin in a glucose tolerance test; type: in vivo
Method: IGF-2 therefore provides an effect that mimics insulin within the body, and that effect is referred to herein as an “insulinomimetic” effect. […] More specifically, when 1 unit of insulin per kg was administered, the recovery in glucose levels began after two hours. But when 800 μg/kg of IGF-2 was administered, the recovery in glucose levels began after six hours. […] In this example, administering IGF-2 can provide better results than administering insulin with respect to blood glucose levels, even when only a single dose was used. Without being bound by this theory, it is possible that the IGF-2 combines with a number of binding proteins in the blood and its active free form is then released slowly from the complex.

[2] = test system: db/db mice; test: Peptide efficacy on type 2 diabetes (db/db mice): pancreas H&E and IHC; type: in vivo
Method: Male db/db mice (BKS.Cg-Dock7m+/+Leprdb/J) were administered Peptide 16 and Peptide 20 via intraperitoneal injection once daily for 35 consecutive days. Peptide 16 was administered at a dose of 5.5 mg/kg, while Peptide 20 was administered at 3.9 mg/kg. The control group received saline. Throughout the treatment period, mice were monitored for body weight and behavioral changes. At the end of the study, mice were sacrificed, and blood samples were collected for C-peptide level measurement. The pancreas was harvested for pathological analysis, including hematoxylin and eosin (H&E) staining and immunohistochemistry (IHC). Results appear in FIG. 37. All pancreatic tissue sections were stained with hematoxylin and eosin (H&E). […] Results appear in FIG. 38.

[3] = test system: Human pancreatic islets; test: Peptides efficacy on human pancreatic islets (IHC, digital quantitative pathological analysis); type: cell-based
Method: Human pancreatic islets, obtained from Prodo Labs, were cultured in Prodo Labs PIM(S) media and maintained at 37° C. with 5% CO2 to ensure optimal viability. The islets were treated with IGF-2 (500 nM) and Peptide-20 (1000 nM) for five days under continuous exposure. After treatment, islets were collected and fixed in 4% paraformaldehyde (PFA) to preserve cellular and structural integrity. The samples were then processed for formalin-fixed paraffin-embedded (FFPE) histology. Sectioned islets were stained using immunohistochemistry (IHC) with specific markers to assess islet integrity, β-cell function, and proliferation. Microscopic Digital Quantitative Pathological Analysis provided critical insights into the effects of IGF-2 and Peptide-20 on islet structure and function. […] These findings establish Peptide-20 as a strong candidate for novel diabetes therapies aimed at restoring islet function and reversing β-cell loss. […] Their ability to enhance β-cell survival and proliferation positions them as strong candidates for the development of novel regenerative therapies, paving the way for innovative drug development aimed at reversing diabetes and restoring endogenous insulin production.

[4] = test system: STZ-treated mouse islets; test: Insulin secretion from STZ-treated mouse islets; type: cell-based; details: islets treated with 2.5 mM STZ; IGF-2 50 nM and 500 nM, GLP-1 100 nM and 1000 nM; 48 hours
Method: Mouse islet cells were treated with 2.5 mM STZ and subsequently treated with either IGF-2 (FA) at 50 nM and 500 nM, or with GLP-1 at 100 nM and 1000 nM.

[5] = test system: β-MIN6 cells; test: Insulin secretion of β-MIN6 cells following glucose induction; type: cell-based, mouse; details: IGF-2 5 nM, 20 nM, 80 nM, 1 week treatment
Excerpt: β-MIN6 cells serve as an in vitro model of mouse pancreatic islets. β-MIN6 cells were used as an in vitro model to measure the effects of treatment with IGF-2.

[6] = test system: STZ-treated mouse islets; test: MTT viability of STZ-treated mouse islets; type: cell-based; details: increasing concentrations
Excerpt: Yellow dye MTT is converted to a purple dye by mitochondrial reductase in viable cells. Therefore, the amount of purple dye present determined by measuring optical density of cells at 570 nm serves as a measurement of cell viability.

[7] = Peptide-20 1000 nM for five days

Substance: insulin [reference compound]
- Glucose level after administration ([1]; glucose tolerance test in mice): decreased
- Time after which the recovery in glucose levels began ([1]; insulin 1 unit per kg, IGF-2 800 μg/kg, single dose): two

Substance: RSRGIVEECCFRICDLALLE [Peptide 20]
- Islets of Langerhans in the pancreas (IHC) ([2]; Peptide 20 3.9 mg/kg i.p. once daily for 35 days): regenerating the islets of Langerhans
- Islets of Langerhans in pancreatic tissue sections (H&E) ([2]; i.p. once daily for 35 days, Peptide 16 5.5 mg/kg, Peptide 20 3.9 mg/kg): regenerating the islets of Langerhans
- Pancreatic islet regeneration, integrity and function ([3]; IGF-2 500 nM, Peptide-20 1000 nM, five days): enhances human pancreatic islet regeneration and function
- Islet area [3, 7]: significant increase
- Total insulin signal intensity [3, 7]: significant increase
- β-cell proliferation [3, 7]: significant increase

Substance: GLP-1 (HAEGTFTSDVSSYLEGQAAKEFIAWLVKGR; ends and bridges not checked; UniProt P01275 98-127, looked up) [a satiety hormone, comparator in vitro, reference compound]
- Insulin secretion [4]: did not significantly increase insulin secretion
- Insulin secretion following glucose induction [5]: does not increase insulin secretion
- Mouse islet viability (MTT, optical density at 570 nm) [6]: did not significantly increase mouse islet viability
